# How the values were obtained:
# Assay in all cases: relative viability (nuclei count vs DMSO), 5 days (fraction); higher = more cells survive
# [1] = compound: Nc1nc(Nc2ccc3c(c2)CC[C@@H](N2CCCC2)CC3)nn1-c1cc2c(nn1)-c1ccccc1CCC2 [Bemcentinib] + C[C@]1(O)C[C@@H](c2nc(-c3ccc4ccc(-c5ccccc5)nc4c3)c3c(N)nccn32)C1 [Linsitinib] (partner 1 µM)
# Procedure, shortened: (§1)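 Relative viability was taken as the ratio of nuclei in treated wells to nuclei in vehicle wells. Lung cancer cell lines in 1536-well plates received compounds by pin tool one day after seeding, either one drug alone or a fixed anchor-drug dose plus five library-drug doses (not always all listed) in √10 steps. Nuclei were counted on 4× images after 5 days of treatment, and values are medians of duplicate plates.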
# [2] = compound: CNC(=O)c1ccccc1Sc1ccc2c(/C=C/c3ccccn3)n[nH]c2c1 [Axitinib] + O=C(CCCCCCC(=O)Nc1ccccc1)NO [Vorinostat] (partner 1 µM)
# Procedure, shortened: as §1
# [3] = compound: CNC(=O)c1ccccc1Sc1ccc2c(/C=C/c3ccccn3)n[nH]c2c1 [Axitinib] + C[C@]1(O)C[C@@H](c2nc(-c3ccc4ccc(-c5ccccc5)nc4c3)c3c(N)nccn32)C1 [Linsitinib] (partner 1 µM)
# Procedure, shortened: as §1
# [4] = compound: CNC(=O)c1ccccc1Sc1ccc2c(/C=C/c3ccccn3)n[nH]c2c1 [Axitinib] + CC(=O)c1c(C)c2cnc(Nc3ccc(N4CCNCC4)cn3)nc2n(C2CCCC2)c1=O [Palbociclib] (partner 0.5 µM)
# Procedure, shortened: as §1
Cell Line,relative viability ([1]; first compound 0.04 µM),relative viability ([1]; first compound 0.1265 µM),relative viability ([1]; first compound 0.4 µM),relative viability ([1]; first compound 1.265 µM),relative viability ([1]; first compound 4 µM),relative viability ([2]; first compound 0.005 µM),relative viability ([2]; first compound 0.01581 µM),relative viability ([2]; first compound 0.05 µM),relative viability ([2]; first compound 0.1581 µM),relative viability ([2]; first compound 0.5 µM),relative viability ([3]; first compound 0.005 µM),relative viability ([3]; first compound 0.01581 µM),relative viability ([3]; first compound 0.05 µM),relative viability ([3]; first compound 0.1581 µM),relative viability ([3]; first compound 0.5 µM),relative viability ([4]; first compound 0.005 µM),relative viability ([4]; first compound 0.01581 µM),relative viability ([4]; first compound 0.05 µM),relative viability ([4]; first compound 0.1581 µM),relative viability ([4]; first compound 0.5 µM)
NCI-H1793,0.662,1.09,0.81,1.07,0.992,0.955,0.679,0.693,0.637,0.678,0.85,0.836,0.935,1.01,0.881,0.285,0.259,0.369,0.285,0.346
HCC-78,0.572,0.56,0.49,0.634,0.806,0.437,0.407,0.333,0.348,0.404,0.602,0.414,0.52,0.526,0.479,0.504,0.408,0.469,0.5,0.449
NCI-H322M,0.994,0.978,0.9,1.01,1.04,0.908,0.836,0.827,0.767,0.962,0.932,0.897,0.892,0.889,0.827,0.454,0.442,0.491,0.427,0.514
COR-L23,1.04,0.935,1.2,1.17,0.844,0.516,0.478,0.502,0.452,0.586,0.899,0.944,1.01,0.968,1.11,0.322,0.297,0.323,0.303,0.331
201T,1.03,1.04,1.02,1.07,1.07,0.995,0.946,0.969,0.9,0.951,1.08,1,1.02,0.965,0.966,0.376,0.361,0.335,0.351,0.343
NCI-H2347,0.959,1.04,0.943,0.951,0.871,0.638,0.55,0.513,0.664,0.619,1.07,0.929,1.08,1.07,0.914,0.42,0.411,0.436,0.434,0.362
LCLC-97TM1,0.183,0.216,–,0.204,0.196,0.889,0.734,0.756,0.804,0.766,0.187,0.226,0.199,0.179,0.186,0.27,0.263,0.199,0.201,0.239
NCI-H2126,0.706,0.693,0.659,0.76,0.781,0.828,0.819,0.801,0.8,0.724,0.696,0.724,0.728,0.667,0.676,0.345,0.348,0.347,0.327,0.343
NCI-H1944,1.25,1.08,1.28,1.16,1.1,0.616,0.54,0.585,0.498,0.518,1.24,1.16,1.16,1.16,1.24,0.365,0.342,0.328,0.318,0.307
HCC-15,0.828,0.983,0.923,0.904,0.93,0.992,0.91,0.837,0.743,0.823,0.959,0.879,0.88,0.838,0.895,0.764,0.766,0.749,0.703,0.65
NCI-H2405,0.874,0.966,0.965,0.918,0.896,1.01,1.03,1.18,0.953,1.13,0.945,1,1.07,1,1.11,0.505,0.524,0.542,0.517,0.537
COR-L 105,0.975,0.943,1.15,1.02,0.871,0.958,0.794,0.874,0.825,0.818,1.04,0.792,0.97,1.21,1.13,0.456,0.434,0.38,0.438,0.37
ABC-1,0.785,0.811,0.881,0.801,0.682,1.15,–,1.13,1.47,1.34,0.972,0.947,0.745,0.759,1.22,0.756,–,0.632,0.626,0.854
HCC-366,0.612,0.921,1.14,0.604,0.881,0.666,0.414,0.447,0.333,0.395,0.673,0.615,0.776,0.662,0.842,0.438,0.378,0.399,0.36,0.524
NCI-H2342,–,–,–,–,–,0.98,0.784,0.666,0.665,0.72,–,–,–,–,–,0.503,0.524,0.536,0.614,0.485
NCI-H2085,0.842,0.977,0.837,0.9,0.855,0.823,0.788,0.883,0.758,0.812,1.02,1,0.845,0.794,1,0.495,0.482,0.454,0.487,0.452

# Reference: the supplement of paper PMC10307832
